According to US20110052713A1, “REPAIRING DAMAGED NERVOUS SYSTEM TISSUE WITH NANOPARTICLES” (priority 2008, published 2011):
Read-outs that look alike come from different tables or passages of the source.

Assays:
[1] = system: voltage gated fast potassium channels; settings: paralyzed persons; cited from earlier work
[2] = system: PC 12 cells; settings: 100 μM acrolein, cited from earlier work
[3] = system: PC 12 cells; assay: Live-dead cell assay after acrolein exposure; format: cell-based; settings: 5 hr, control cells 90±7%
[4] = system: PC 12 cells; assay: LDH release after acrolein exposure (chitosan nanoparticles); format: cell-based; settings: Rattus norvegicus, 100 μM acrolein, post-treatment with nanoparticles, acrolein row = acrolein alone, read-out: LDH release, % of control values
Experimental: (§1) In one example, functional tests (MTT and LDH exclusion tests) were used to evaluate the response to different chitosan formulations in PC 12 cells suffering from acrolein exposure. We compared the effectiveness of these formulations using entire cell populations in six different groups: 1) a control group, (2) a 100 μM acrolein-exposed group, (3) a 100 μM acrolein-exposed and Chi-DS nanoparticle—treated group, (4) a 100 μM acrolein-exposed and Chi-DS/Hy nanoparticle—treated group, (5) a 100 μM acrolein-exposed and Chi-TPP nanoparticle—treated group, and (6) a 100 μM acrolein-exposed and Chi-TPP/Hy nanoparticle—treated group. First, we tested whether chitosan nanoparticles were capable of sufficiently reducing acrolein cytotoxicity using the MTT assay. In all experiments, the various types of nanoparticles were added to the cell medium after 15 min following the exposure to acrolein. As a consequence of acrolein exposure, approximately 98% of the cells in culture died within a couple of hours. Acrolein-induced cytotoxicity was expressed as a percentage of MTT activity, which is, as explained above, an indicator of aberrant mitochondria functioning. Thus, MTT activity subsequent to 100 acrolein exposure was decreased to 3.5±2.9% of controls values. […] Even more significant increase was observed after application of hydralazine-entrapped chitosan nanoparticles. […]

[5] = system: PC 12 cells; assay: LDH release assay after acrolein exposure (MSN study); format: cell-based; settings: Rattus norvegicus, PC-12, 0.25 h; 100 μM acrolein; treatment added with 15 min delay; acrolein row = acrolein alone; read-out: LDH release, % of control values
Experimental: (§2) Exposure to 100 μM acrolein can induce the death of >80% of a population of PC 12 Cells by a few hours, and 100% by 8-12 hours of observation. […] Typically, populations of cells with acrolein-mediated damage show a significant reduction in MTT activity due to the collapse of mitochondria function.

[6] = system: PC 12 cells; assay: MTT assay after acrolein exposure (MSN study); format: cell-based; settings: Rattus norvegicus, read-out: MTT activity (absorbance), % of control values
Experimental: as §2

[7] = system: PC 12 cells; assay: MTT assay after acrolein exposure (chitosan nanoparticles); format: cell-based
Experimental: as §1

[8] = system: acrolein poisoned cultures; assay: ROS level in acrolein poisoned cultures; format: cell-based; settings: 100 μM acrolein; acrolein row = acrolein alone; read-out: level of ROS, % of control values

Nc1ccncc1 [4-Aminopyridine]
share of treated population with clinically meaningful recoveries of function [1]: about 30%

C=CC=O [acrolein]
death of cell population ([2]; by 8-12 hours of observation): 100%
death of cell population ([2]; by a few hours): > 80%
cell survival (live-dead cell assay) [3]: 30±8%
activity at 100 µM [4]: 178 ± 25.4%
activity at 100 µM [5]: 168 ± 15.4%
activity at 100 µM [6]: 11 ± 10.2%
activity at 100 µM ([7]; Rattus norvegicus, PC-12, 100 μM acrolein, nanoparticles added 15 min after, after 5 hr, acrolein row = acrolein alone, read-out: MTT activity / survival, % of control values): 3.5 ± 2.9%
cells in culture that died ([7]; acrolein exposure, within a couple of hours): approximately 98%
activity at 100 µM [8]: 120 ± 14%

NNc1nncc2ccccc12 [hydralazine]
activity at 500 µM [6]: 53.8 ± 18.6%
